Key:
MOLM-13 cells = experiment: Proliferation assay MOLM-13 (Method 3, Cell Titre-Glo); type: cell-based; conditions: Homo sapiens; MOLM-13, 72-hour exposure; read-out: Inhibition of MOLM-13 cell proliferation IC50
Procedure: Non-adherent MOLM-13 human acute myeloid leukemia cells (DSMZ ACC 554) were seeded at a density of 5,000 cells/well in a 96-well multititer plate in 100 μL of growth medium supplemented 10% fetal calf serum. After 24 hours, cell viability of one plate (zero-point plate) was determined with the Cell Titre-Glo Luminescent Cell Viability Assay (Promega), while 50 μL of test compound containing medium was added to the wells of the other plates (final concentrations in the range of 0.001-10 μM and DMSO controls; the final concentration of the solvent dimethyl sulfoxide was 0.5%). Cell viability was assessed after 72-hour exposure with the Cell Titre-Glo Luminescent Cell Viability Assay (Promega). IC50 values (inhibitory concentration at 50% of maximal effect) were determined by means of a 4 parameter fit on measurement data which were normalized to vehicle (DMSO) treated cells (=100%) and measurement readings taken immediately before compound exposure (=0%).

A2780 cells = experiment: Proliferation assay A2780 (Method 3, crystal violet); type: cell-based; conditions: Homo sapiens, 96 h; A2780, 4 days incubation; read-out: Inhibition of A2780 cell proliferation IC50
Procedure: Cultivated tumour cells (HeLa, human cervical tumour cells, ATCC CCL-2; NCI-H460, human non-small cell lung carcinoma cells, ATCC HTB-177; A2780, human ovarian carcinoma cells, ECACC #93112519; DU 145, hormone-independent human prostate carcinoma cells, ATCC HTB-81; HeLa-MaTu-ADR, multidrug-resistant human cervical carcinoma cells, EPO-GmbH Berlin; Caco-2, human colorectal carcinoma cells, ATCC HTB-37; B16F10, mouse melanoma cells, ATCC CRL-6475) were plated at a density of 5,000 cells/well (DU145, HeLa-MaTu-ADR), 3,000 cells/well (NCI-H460, HeLa), 2,500 cells/well (A2780), 1,500 cells/well (Caco-2), or 1,000 cells/well (B16F10) in a 96-well multititer plate in 200 μL of their respective growth medium supplemented 10% fetal calf serum. […] Cell proliferation was determined by staining the cells with crystal violet: the cells were fixed by adding 20 μl/measuring point of an 11% glutaric aldehyde solution for 15 minutes at room temperature. […] The extinction was determined by photometry at a wavelength of 595 nm. The change of cell number, in percent, was calculated by normalization of the measured values to the extinction values of the zero-point plate (=0%) and the extinction of the untreated (0 μm) cells (=100%). […]

Row | SMILES | IC50 (MOLM-13 cells) [nM] | IC50 (A2780 cells) [nM]
1 | CS(=O)(=O)Cc1cccc(Nc2ncc(F)c(-c3ccc(F)c4ccoc34)n2)c1 [Example 1, 5-Fluoro-4-(4-fluoro-1-benzofuran-7-yl)-N-{3-[(methylsulfonyl)methyl]-phenyl}pyrimidin-2-amine] | 170 | 90
2 | Cc1cc(CS(C)(=O)=O)cc(Nc2ncc(F)c(-c3ccc(F)c4ccoc34)n2)c1 [Example 4, 5-Fluoro-4-(4-fluoro-1-benzofuran-7-yl)-N-{3-methyl-5-[(methylsulfonyl)methyl]-phenyl}pyrimidin-2-amine] | 46 | 38

— patent US9902716B2, “Fluorinated benzofuranyl-pyrimidine derivatives containing a sulfone group” (Bayer Pharma Aktiengesellschaft, priority 2014, dated 2018)
